Key:
[1] = system: herpes simplex virus (HSV) and VZV; details: disclosed in Patent References 5 to 7; cited from earlier work
[2] = system: HSV-1; test: HSV-1 skin infection of hairless mice: skin lesion score and histopathology of skin, spinal cord and dorsal root ganglion; type: in vivo, mouse
Experimental: Using mice, examination was carried out on the tissue damage and nerve degeneration of the skin, spinal cord and spinal cord dorsal root ganglion by HSV-1 infection. Under ether anesthesia, right side of the dorsal part of a hairless mouse (HOS: HR-1, female, 7 weeks of age at the time of infection) was scratched with a needle, and 15 μl/mouse of an HSV-1 virus liquid was added dropwise to the scratched part to be infected. While, 15 μl/mouse of a solvent instead of the HSV-1 virus liquid was added dropwise in the pseudo-infection group. The compound to be tested (N-(2,6-dimethylphenyl)-N-(2-{[4-(1,2,4-oxadiazol-3-yl)phenyl]amino}-2-oxoethyl)tetrahydro-2H-thiopyran-4-carboxamide 1,1-dioxide: hereinafter, “compound A”) was used by dissolving in a 25% Cremophor (registered trademark) EL/25% polyethylene glycol 400 aqueous solution. By setting the administration liquid volume per one administration to 10 ml/kg, each initial administration was started one day after the HSV-1 infection. Thereafter, 50 mg/kg was repeatedly administered orally twice a day for 5 days.
The skin and spinal column (including spinal cord and dorsal root ganglion) were collected at 11 or 28 days after the infection and fixed with a 10% neutral buffer formalin liquid to prepare paraffin sections. Also, specimens of spinal cord and dorsal root ganglion were prepared on the transverse plane at the level of fourth thoracic vertebra (T4) and sixth thoracic vertebra (T6). Regarding the staining, immunohistological staining for PGP 9.5 as neurite-specific antigen was carried out on the skin sections, in addition to the hematoxylin-eosin staining (HE staining).
The skin lesions which bear resemblance to herpes zoster and are developed accompanied by HSV skin infection were classified based on the skin lesion critical degrees and systemic symptoms and scored as from 0 to 7, every day from 1 day to 28 days after the infection.
Score 1: erythema, blister or scab at local region
Score 2: erythema, blister or scab at small region
Score 3: erythema, blister or scab at middle region
Score 4: strap-like blister or scab
Score 5: erosion accompanied by ulcer at middle region
Score 6: strap-like ulcer
Score 7: death or paralysis

[3] = system: HSV-1; test: mouse HSV infection pain model (von Frey hair pain score, histopathology); type: in vivo
Source text: Examination was made on the effect of compound A upon the pain accompanied by viral infection. The mouse HSV infection pain model system on which onset of the pain similar to ZAP including acute phase and chronic phase pains has been reported was used in the evaluation of pain (Takasaki I, et al. Pain 2000; 86: 95-101, Takasaki I, et al. Jpn J. Pharmacol 2000; 83: 319-326, Takasaki I, et al. Anesthesiology 2002; 96: 1168-1174, Sasaki A, et al. Neuroscience 2007; 150: 459-466). Briefly, an area of 5×5 mm of epidermis of the lower part of the right hind leg knee joint of a hairless mouse (HOS: HR-1, female, 7 weeks of age at the time of infection) was scratched with a bundle of ten 27G intracutaneous injection needles, and 1.5×10^5 pfu/10 μL of an HSV-1 virus liquid was added dropwise thereto and spread thereon to be infected. Starting from one day after the infection, the compound A (50 mg/kg) or a solvent (25% Cremophor (registered trademark) EL/25% polyethylene glycol 400 aqueous solution) was orally administered twice a day for 5 days (5 animals each). The skin lesions were classified based on the skin lesion critical degrees and systemic symptoms and scored as from 0 to 7 (cf. the above-mentioned Example 1). […] The pain reaction of this case was evaluated as follows. […]
The pain score of each individual was calculated by averaging six scores. […]

[4] = system: patients who underwent herpes zoster; test: clinical evaluation of zoster-associated pain / PHN incidence (Numeric pain scale); type: in vivo, human; details: for PHN incidence rate: pain scale of 3 or more on 91 days after first day of administration
Source text: The effect of compound A to prevent and treat zoster-associate pain in patients who underwent herpes zoster was clinically evaluated by monitoring the presence or absence of pain after administration of the compound A in the following manner. For the purpose, Numeric pain scale (11 points of from 0 (no pain) to 10 (a pain of more than this cannot be considered)) was used in the pain evaluation (Oxman M N, et al. N Engl J Med 2005; 352: 2271-2284).
Under informed consent with the persons themselves, 100 mg, 200 mg or 400 mg of the compound A was taken once a day for 7 days by each of the patients who underwent herpes zoster, and the pain was recorded by them day by day by the Numeric pain scale using a diary. From the diary record, the number of patients having pain scales of 3 or more on 91 days after the first day of drug administration were counted as the cases of PHN onset, and using the ratio based on the all persons to be rested as the PHN incidence rate, the effect of the compound A to prevent PHN was evaluated. As a result, the PHN incidence rate in the group which took 100 mg, 200 mg or 400 mg of the compound A was 2.0% (2 cases in 99 persons), 1.0% (1 case in 97 persons) or 3.2% (3 cases in 95 persons), respectively. Compound A inhibited the onset of PHN in 95% or more of the herpes zoster patients in the clinical evaluation.

[5] = system: VZV; details: reported in Patent References 5 to 8; cited from earlier work

Row | SMILES | in vivo activity [1] | skin lesion score (onset of herpes zoster-like skin lesions) ([2]; hairless mouse, HSV-1 dorsal skin infection, 50 mg/kg orally twice a day for 5 days from 1 day after infection, scored day 1-28, FIG. 1) | right dorsal root ganglion histopathology (degeneration of nerve cell, infiltration of mononuclear cell) ([2]; right dorsal root ganglion at 11 days after infection, HE staining, FIG. 3d) | skin histopathology, HE staining (fall off of epidermis, infiltration of mononuclear cells, regeneration of epidermis) ([2]; skin at 11 days after infection, 50 mg/kg orally twice a day for 5 days, FIG. 2b) | PGP 9.5 immunostaining of the skin (nerve ending in epidermis) ([2]; skin at 28 days after infection, versus solvent control group, FIG. 2d) | spinal cord histopathology (nerve fiber vacuolization) ([2]; spinal cord at 11 days after infection, HE staining, FIG. 3b) | nerve cell degeneration in right dorsal root ganglion, spinal cord right dorsal horn and right hind leg sciatic nerve bundle ([3]; 28 days after infection, HE staining, FIG. 5) | pain score (von Frey hair 0.4 g, infected hind leg) ([3]; hairless mouse, HSV-1 hind leg infection, 50 mg/kg orally twice a day for 5 days from 1 day after infection, early stage of onset and complete recovery stage of the lesion, FIG. 4B) | PHN incidence rate ([4]; 100 mg once a day for 7 days, 99 persons) [%] | PHN incidence rate ([4]; 200 mg once a day for 7 days, 97 persons) [%] | PHN incidence rate ([4]; 400 mg once a day for 7 days, 95 persons) [%] | herpes zoster patients in whom onset of PHN was inhibited ([4]; 100, 200 or 400 mg once a day for 7 days, all dose groups) [%] | anti-viral activity on VZV [5]
1 | Cc1ccc(N(CC(=O)Nc2ccc(-c3cocn3)cc2)C(=O)C2CCS(=O)(=O)CC2)cc1 [N-(4-methylphenyl)-N-(2-{[4-(1,3-oxazol-4-yl)phenyl]amino}-2-oxoethyl)tetrahydro-2H-thiopyran-4-carboxamide 1,1-dioxide] | good in vivo activity | – | – | – | – | – | – | – | – | – | – | – | –
2 | Cc1cccc(C)c1N(CC(=O)Nc1ccc(-c2ncon2)cc1)C(=O)C1CCS(=O)(=O)CC1 [compound A, N-(2,6-dimethylphenyl)-N-(2-{[4-(1,2,4-oxadiazol-3-yl)phenyl]amino}-2-oxoethyl)tetrahydro-2H-thiopyran-4-carboxamide 1,1-dioxide] | good in vivo activity | inhibited the onset of skin lesions | inhibited degeneration of nerve cell and infiltration of mononuclear cell | inhibited fall off of epidermis and infiltration of mononuclear cell and accelerated regeneration of epidermis | inhibition of the reduction of nerve ending | protected nerve fiber in the spinal cord | nerve cell degeneration was inhibited | increase of pain score was considerably inhibited | 2.0 | 1.0 | 3.2 | ≥ 95 | has the anti-viral activity on VZV
